Assay results as given in patent US12577231B2, “Androgen receptor PROTACS” (GlaxoSmithKline Intellectual Property Development Limited, priority 2023, dated 2026).
Residue numbers refer to the chain shown, from its start.

Columns and labels:
[1] = target: T1, Androgen receptor W742C (Homo sapiens, UniProt P10275, W742C); assay: Degradation of overexpressed Androgen Receptor in A549 cells (HiBiT), W742C; assay type: cell-based; conditions: A549 cells overexpressing AR W742C, cycloheximide, 24 hours
T1 construct: expressed in transfected cells; host or cells: A549, transduced, puromycin selected
T1 sequence (P10275 1-920 W742C): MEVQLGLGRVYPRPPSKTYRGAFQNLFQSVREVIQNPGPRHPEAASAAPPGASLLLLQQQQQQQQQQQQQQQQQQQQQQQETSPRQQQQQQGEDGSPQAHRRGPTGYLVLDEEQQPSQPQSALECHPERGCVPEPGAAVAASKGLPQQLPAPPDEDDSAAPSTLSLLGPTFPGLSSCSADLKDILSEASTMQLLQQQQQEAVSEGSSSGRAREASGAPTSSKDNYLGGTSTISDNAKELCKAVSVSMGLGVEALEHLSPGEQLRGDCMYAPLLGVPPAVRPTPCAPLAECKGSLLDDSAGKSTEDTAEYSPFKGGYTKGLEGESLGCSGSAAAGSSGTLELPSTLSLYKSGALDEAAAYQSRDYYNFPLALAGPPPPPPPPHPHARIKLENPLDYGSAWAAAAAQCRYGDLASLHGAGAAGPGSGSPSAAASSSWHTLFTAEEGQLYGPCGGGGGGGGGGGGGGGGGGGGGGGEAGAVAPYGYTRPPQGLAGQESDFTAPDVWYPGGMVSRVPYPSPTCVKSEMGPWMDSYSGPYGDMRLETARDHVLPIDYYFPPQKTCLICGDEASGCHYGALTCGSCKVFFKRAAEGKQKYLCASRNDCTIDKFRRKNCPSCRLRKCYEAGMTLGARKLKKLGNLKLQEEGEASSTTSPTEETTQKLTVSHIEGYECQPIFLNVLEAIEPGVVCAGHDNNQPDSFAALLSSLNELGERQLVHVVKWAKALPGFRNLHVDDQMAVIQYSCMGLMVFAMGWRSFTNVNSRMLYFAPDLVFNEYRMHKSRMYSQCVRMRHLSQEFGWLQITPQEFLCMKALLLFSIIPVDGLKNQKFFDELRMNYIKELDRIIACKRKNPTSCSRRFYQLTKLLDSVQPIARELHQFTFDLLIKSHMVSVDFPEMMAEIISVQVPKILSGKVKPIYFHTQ
Protocol: (§1) A549 cells were transduced to express wild type androgen receptor and Androgen receptor containing the following mutations (L702H, H875Y W742C W742L F877L, T878A and T878A/H875Y) with HiBiT tags. Transduced cells following puromycin selection were maintained in a humidified incubator (at 37° C. and 5% CO2 in the DMEM medium supplemented with 1% (v/v) Pen/Strep, 1% (v/v) Glutamax and 10% (v/v) FBS. A549 cells expressing each AR construct were detached from plate and counted. Cell suspensions at density 0.2 million per mL were prepared. Cell suspension was supplemented with 100 μg/mL of cycloheximide to block protein synthesis. Cells were preincubated with cycloheximide for 1 hr before seeding. Cells were seeded onto 384-well plate at density of 5,000 in 25 μL per well. A two fold serial dilution of test compounds, starting from 1 μM (row A) in 2-fold serial dilution series across the column using Tecan D300e dispenser. […]
(§2) Nano-Glo HiBiT Lytic reagent was prepared by adding LgBiT protein and Nano-Glo® substrate to lytic buffer pre-equilibrated at room temperature following manufacturer protocol (https://www.promega.co.uk/resources/protocols/technical-manuals/101/nanoglo-luciferase-assay-system-protocol). […] The plates were then centrifuged (100×G, 1 min) and incubated on shaker for 10 mins before taking readings on Pherastar Luminescence microplate reader. […]

[2] = target: T2, Androgen receptor T878A (Homo sapiens, UniProt P10275, T878A); assay: Degradation of overexpressed Androgen Receptor in A549 cells (HiBiT), T878A; assay type: cell-based; conditions: A549 cells overexpressing AR T878A, cycloheximide, 24 hours
T2 construct: expressed in transfected cells; host or cells: A549, transduced, puromycin selected
T2 sequence (P10275 1-920 T878A): T1 sequence (P10275 1-920 W742C) with C742W, T878A
Protocol: as §1, §2

- Summary pXC50 [1]: 8.57
- Summary pXC50 [2]: 8.81
SMILES: COc1cc(O[C@H]2C(C)(C)[C@H](NC(=O)c3ccc(N4CCC(CN5CCC(n6ncc7c(N8CCC(=O)NC8=O)nccc76)CC5)CC4)c(F)c3)C2(C)C)ccc1C#N [Example 20, N-((1r,3r)-3-(4-Cyano-3-methoxyphenoxy)-2,2,4,4-tetramethylcyclobutyl)-4-(4-((4-(4-(2,4-dioxotetrahydropyrimidin-1(2H)-yl)-1H-pyrazolo[4,3-c]pyridin-1-yl)piperidin-1-yl)methyl)piperidin-1-yl)-3-fluorobenzamide]
